The results in this text go back to patent publication US20050238642A1, “Modified bouganin proteins, cytotoxins and methods and uses thereof” (priority 2004, published 2005).

One experiment deals with cell-free protein synthesis. Briefly: Cell-free protein synthesis assay (luciferase, coupled transcription/translation). As to conditions: multiple substitution variants, relative to wild-type protein. Format: biochemical. Further details: key to Activity in luciferase assay: ++: same or higher than WT protein.; +: within 2-fold of WT activity.; +/−: within 3-fold of WT activity.; −−: less than one-third of WT activity. From the text: The term “biological activity” as used herein is the ability of the modified or non-modified bouganin protein to inhibit protein synthesis on ribosomes, which can be assessed in a number of ways. It should be noted that a modified bouganin protein will still have biological activity even if such activity is lower than that of the non-modified protein, however it would need to have some level of detectable activity. For example, the biological activity of the modified or non-modified bouganin protein can be assessed by identifying their N-glycosidase activity, and in particular with sufficient activity to provide significant inhibition of protein translation. One such suitable assay involves testing the activity of the variant bouganin proteins in comparison to non-modified bouganin in a cell-free protein synthesis assay. A coupled transcription/translation mix containing methionine, DNA encoding the reporter protein luciferase and serial dilutions of non-modified and modified bouganin protein are co-incubated. The levels of translated luciferase are readily detected using a luminescence counter following addition of a substrate reagent. The measured luminescence is inversely proportional to the bouganin N-glycosidase activity present in the reaction. It is usual to provide a negative control such as an in-active bouganin protein, for example containing a Y70A substitution.
The biological activity of the proteins of the invention can equally be assessed in many ways. In one embodiment, modified bouganin molecules are identified with N-glycosidase activity, and in particular with sufficient activity to provide significant inhibition of protein translation. One such suitable assay involves testing the activity of the modified bouganin proteins in comparison to non-modified bouganin in a cell-free protein synthesis assay. A coupled transcription/translation mix containing methionine, DNA encoding the reporter protein luciferase and serial dilutions of non-modified and modified bouganin proteins are co-incubated. The levels of translated luciferase are readily detected using a luminescence counter following addition of a substrate reagent. The measured luminescence is inversely proportional to the bouganin N-glycosidase activity present in the reaction. It is usual to provide a negative control such as an in-active bouganin protein for example containing a Y70A substitution.
The activity of the wild-type and modified (mutant) bouganin proteins was tested by measuring their ability to inhibit protein synthesis in a cell-free protein synthesis assay.
A mixture of 10 μl TNT Coupled Transcription/Translation mix (Promega), 20 […] methionine, 120 ng pT7 luciferase DNA (Promega) and serial dilutions of WT and mutant bouganin protein in a final volume of 12.5 μl were incubated at 30° C. for one hour, after which the reaction was stopped by addition of 100 μl “SteadyGlow” luciferase assay reagent (Promega). The luciferase activity was measured using a Wallac luminescence counter. Active bouganin protein is detected as a decrease in measured luciferase activity. Each modified bouganin protein was tested in at least 5 concentrations, with each data point in duplicate. Positive and negative controls were included in each experiment.
In each instance results are expressed relative to wild-type protein activity.
For the substance “Bou156: modified bouganin with V123A, D127A, Y133N, I152A (SEQ ID No 13)”, the “Activity in luciferase assay” value is given as “++”. Take “Bou157: modified bouganin with V123A, D127A, Y133Q, I152A (SEQ ID No 14)”: the “Activity in luciferase assay” value is “++”.

Staying with this experiment, now noted: single substitution variants, relative to wild-type protein.
“D127A: modified bouganin protein with substitution D127A”: the “Activity in luciferase assay” value is recorded as “++”. “D127G: modified bouganin protein with substitution D127G”: the “Activity in luciferase assay” value is listed as “++”. Consider “E129G: modified bouganin protein with substitution E129G”, for which the “Activity in luciferase assay” value was “++”.

Turning to “E129K: modified bouganin protein with substitution E129K”, the “Activity in luciferase assay” value is “−−”. “E129Q: modified bouganin protein with substitution E129Q”: the “Activity in luciferase assay” value was “+/− (within 3-fold of WT activity.)”. Take “E129R: modified bouganin protein with substitution E129R”: the “Activity in luciferase assay” value is recorded as “−−”. For E151T I152E, the “Activity in luciferase assay” value is given as “−−”. Take “F155H: modified bouganin protein with substitution F155H”: the “Activity in luciferase assay” value is recorded as “−−”. Turning to “F155P: modified bouganin protein with substitution F155P”, the “Activity in luciferase assay” value is “−−”. Consider “I152A: modified bouganin protein with substitution I152A”, for which the “Activity in luciferase assay” value is recorded as “++”.

Regarding “I152E: modified bouganin protein with substitution I152E”, the “Activity in luciferase assay” value is on record as “−−”. For “I152Q: modified bouganin protein with substitution I152Q”, the “Activity in luciferase assay” value was “++”. For “I158P: modified bouganin protein with substitution I158P”, the “Activity in luciferase assay” value is recorded as “−−”.

As to “V123A: modified bouganin protein with substitution V123A”, the “Activity in luciferase assay” value is listed as “++”. For the substance “V123D: modified bouganin protein with substitution V123D”, the “Activity in luciferase assay” value is reported as “−−”. On the same count and under the same terms, for “V123E: modified bouganin protein with substitution V123E” the value was “−−”; for “V123G: modified bouganin protein with substitution V123G”, “−−”; for “V123H: modified bouganin protein with substitution V123H”, “−−”. In the case of “V123K: modified bouganin protein with substitution V123K”, the “Activity in luciferase assay” value is “−−”.

As for “V123N: modified bouganin protein with substitution V123N”, the “Activity in luciferase assay” value was “−−”.

On to “V123P: modified bouganin protein with substitution V123P”, for which the “Activity in luciferase assay” value was “−−”. Consider “V123Q: modified bouganin protein with substitution V123Q”, for which the “Activity in luciferase assay” value was “++”. As to “V123R: modified bouganin protein with substitution V123R”, the “Activity in luciferase assay” value is “−−”. Take “V123S: modified bouganin protein with substitution V123S”: the “Activity in luciferase assay” value is “−−”. “V123T: modified bouganin protein with substitution V123T”: the “Activity in luciferase assay” value is listed as “+/− (within 3-fold of WT activity.)”. “Y70A: inactive bouganin with Y70A substitution, negative control (SEQ ID NO. 129) [reference compound]”: the “Activity in luciferase assay” value is listed as “−−”. For the substance “Y133A: modified bouganin protein with substitution Y133A”, the “Activity in luciferase assay” value is reported as “++”. The same measure, in the same setting: the result for “Y133D: modified bouganin protein with substitution Y133D” reads “++”.

As for “Y133E: modified bouganin protein with substitution Y133E”, the “Activity in luciferase assay” value is recorded as “+/− (within 3-fold of WT activity.)”.

Consider “Y133G: modified bouganin protein with substitution Y133G”, for which the “Activity in luciferase assay” value is “++”. In the case of “Y133H: modified bouganin protein with substitution Y133H”, the “Activity in luciferase assay” value was “++”. In the case of “Y133K: modified bouganin protein with substitution Y133K”, the “Activity in luciferase assay” value is recorded as “++”. “Y133N: modified bouganin protein with substitution Y133N”: the “Activity in luciferase assay” value is “++”. On to “Y133P: modified bouganin protein with substitution Y133P”, for which the “Activity in luciferase assay” value is listed as “−−”.

“Y133Q: modified bouganin protein with substitution Y133Q”: the “Activity in luciferase assay” value is “++”. With “Y133R: modified bouganin protein with substitution Y133R”, the “Activity in luciferase assay” value is “++”. On the same count and under the same terms, for “Y133S: modified bouganin protein with substitution Y133S” the value was “++”; for “Y133T: modified bouganin protein with substitution Y133T”, “++”.

The same experiment, now with this note: when conjugated to the Fab fragment (FIG. 12).
Turning to “Bou156: modified bouganin with V123A, D127A, Y133N, I152A (SEQ ID No 13)”, the “potency in cell-free assay” value was “retained its potency”.
